Results from article PMC9995496, “A screen for MeCP2-TBL1 interaction inhibitors using a luminescence-based assay” (Scientific Reports, 2023).
Structures can show the parent of a compound that is named as a salt. Ends that are not written are not given here.

test system: PRKACA-PRKAR2A interaction (SmBiT-PRKACA / LgBiT-PRKAR2A), protein kinase A; parameters: NanoLuc complementation counter-screen in cell extract, PRKACA with PRKAR2A, loss of luminescence, detects NanoLuc interference; details: counter-screen for NanoLuc interference, 0.5 h, 20 µM, inhibitor, Inh (PKA)

Going from `COC(=O)N[C@H](C(=O)N[C@@H](Cc1ccccc1)[C@@H](O)CN(Cc1ccc(-c2ccccn2)cc1)NC(=O)[C@@H](NC(=O)OC)C(C)(C)C)C(C)(C)C` [UM0141949:01, Atazanavir] to `O=C(Nc1ccc2[nH]nc(-c3ccncc3)c2c1)[C@@H]1CCN(CC(=O)N2CCN(c3ccc(-c4ncccn4)cc3)CC2)C1` [UM0141626:01, SCH772984], the “Inh (PKA)” value rises from 2.849% to 11.73%.

Compared with `CN(c1ncccc1CNc1nc(Nc2ccc3c(c2)CC(=O)N3)ncc1C(F)(F)F)S(C)(=O)=O` [UM0141980:01, PF-562271], `C#Cc1cccc(Nc2ncnc3cc(OCCOC)c(OCCOC)cc23)c1` [UM0127944:02, Erlotinib] is lower in “Inh (PKA)” value: 55.16% for the first, 7.481% for the second.

In the case of `CCOC(=O)C1=C[C@@H](OC(CC)CC)[C@H](NC(C)=O)[C@@H](N)C1` [UM0133352:02, Oseltamivir phosphate], the “Inh (PKA)” value is reported as -0.5287%.

same assay, conditions: counter-screen for NanoLuc interference; 0.5 h, 20 µM; inhibitor

Going from `CN1[C@@H]2CC(O)C[C@H]1[C@@H]1O[C@@H]12` (some centres unmarked) [UM0142220:01, Scopine] to `Oc1cc(O)cc(/C=C/c2ccc(O)c(O)c2)c1` [UM0128559:03, Piceatannol], the “Inh (PKA)” value rises from 1.123% to 17.81%.

Going from `C1=N/C2=N/c3ccc(OCCN4CCCC4)c(c3)COC/C=C/COCc3cccc(c3)C(=C1)N2` [UM0142316:01, Pacritinib (SB1518)] to `Nc1cc(F)ccc1NC(=O)/C=C/c1cnn(C/C=C/c2ccccc2)c1` [UM0142135:01, RGFP966], the “Inh (PKA)” value falls from 30.05% to 7.983%.

First: CC(C)C[C@H](NC(=O)CNC(=O)c1cc(Cl)ccc1Cl)B1OC(=O)C(CC(=O)O)(CC(=O)O)O1 [UM0141662:01, MLN9708]
Second: CN[C@@H]1[C@H](O[C@H]2[C@H](O[C@H]3[C@H](O)[C@@H](O)[C@H](N=C(N)N)[C@@H](O)[C@@H]3N=C(N)N)O[C@@H](C)[C@]2(O)C=O)O[C@@H](CO)[C@H](O)[C@H]1O [UM0142407:01, Streptomycin sulfate]
The “Inh (PKA)” value of the first is lower: -0.4944% for the first, 1.585% for the second.

Going from `O=C(O)O` [UM0141172:02, Lithium carbonate] to `c1cc(OCCN2CCCCC2)cc(-c2n[nH]c3ccc(-c4nnc[nH]4)cc23)c1` [UM0142189:01, CC-401], the “Inh (PKA)” value rises from -3.585% to 1.846%.

First: Nc1nc(=O)n([C@@H]2CS[C@H](CO)O2)cc1F [UM0142037:01, Emtricitabine]
Second: COC(=O)N1CCN(Cc2cccc(NC(=O)Nc3ccc(C)nc3)c2F)CC1 [UM0142008:01, Omecamtiv mecarbil]
The “Inh (PKA)” value of the first is lower: -0.284% for the first, 3.022% for the second.

First: C[C@@H](Oc1cc(-c2cnn(C3CCNCC3)c2)cnc1N)c1c(Cl)ccc(F)c1Cl [UM0141505:01, (R)-Crizotinib]
Second: Cn1cc(-c2ccc3ncc(Cc4ccc5ncccc5c4)n3n2)cn1 [UM0142063:01, NVP-BVU972]
The “Inh (PKA)” value of the first is lower: 10.35% for the first, 13.19% for the second.

Compared with `O=c1cc(-c2cccc3c2Sc2ccccc2S3)oc(N2CCOCC2)c1` [UM0127803:03, KU 55933], `N=C(N)NC(=N)NCCc1ccccc1` [UM0142225:01, Phenformin HCl] is lower in “Inh (PKA)” value: 14.3% for the first, 1.045% for the second.

Going from `Cc1ccc(C(=O)Nc2ccc(CN3CCN(C)CC3)c(C(F)(F)F)c2)cc1C#Cc1cnc2[nH]ncc2c1` [UM0142238:01, GZD824] to `NS(=O)(=O)c1ccc(NC(=O)Nc2ccc(F)cc2)cc1` [UM0141807:01, U-104], the “Inh (PKA)” value falls from 15.4% to 3.096%.

Going from `Cc1ccc(C(=O)N(CCCN)[C@@H](c2oc3cc(Cl)ccc3c(=O)c2Cc2ccccc2)C(C)C)cc1` [UM0142317:01, SB743921] to `OC[C@@H](O)[C@@H](O)[C@@H](O)CO` [UM0050273:04, Ribitol], the “Inh (PKA)” value falls from 14.68% to 0.444%.

First: CN(C)C(=O)COC(=O)Cc1ccc(OC(=O)c2ccc(NC(=N)N)cc2)cc1 [UM0142412:01, Camostat Mesilate]
Second: Cc1[nH]c(/C=C2\C(=O)Nc3ccc(S(=O)(=O)Cc4c(Cl)cccc4Cl)cc32)c(C)c1C(=O)N1CCC[C@@H]1CN1CCCC1 [UM0141454:01, PHA-665752]
The “Inh (PKA)” value of the first is lower: 0.7864% for the first, 72.78% for the second.

First: Oc1ccc(Nc2nc(-c3ccc(Cl)cc3)cs2)cc1 [UM0013692:02, SKI II]
Second: CN(C)CC[C@H](CSc1ccccc1)Nc1ccc(S(=O)(=O)NC(=O)c2ccc(N3CCN(Cc4ccccc4-c4ccc(Cl)cc4)CC3)cc2)cc1[N+](=O)[O-] [UM0136062:02, ABT-737]
The “Inh (PKA)” value of the first is lower: 14.65% for the first, 17.72% for the second.

Going from `c1c[nH]cn1` [UM0142811:01, Imidazole] to `CC[C@H](C)[C@H](NC(=O)[C@H]([C@@H](C)CC)N(C)C(C)=O)C(=O)N[C@H](C(=O)N[C@@H](CC(C)C)C(=O)[C@@]1(C)CO1)[C@@H](C)O` [UM0141477:01, Epoxomicin], the “Inh (PKA)” value rises from 0.004759% to 1.438%.

Compared with `CCc1cccc(CC)c1NC(=O)N1Cc2[nH]nc(NC(=O)c3ccc(N4CCN(C)CC4)cc3)c2C1` [UM0141719:01, PHA-680632], `CC(C)(C)c1ccc(CN2CCN(C(c3ccccc3)c3ccc(Cl)cc3)CC2)cc1` (centres unmarked) [UM0142302:01, Buclizine HCl] is lower in “Inh (PKA)” value: 7.851% for the first, 2.001% for the second.

First: OCCN(CCO)c1nc(N2CCCCC2)c2nc(N(CCO)CCO)nc(N3CCCCC3)c2n1 [UM0118197:03, Dipyridamole]
Second: COC(=O)C1=C(C)NC(C)=C(C(=O)OC(C)C)C1c1cccc2nonc12 (centres unmarked) [UM0142050:01, Isradipine (Dynacirc)]
The “Inh (PKA)” value of the first is lower: 27.31% for the first, 94.06% for the second.

First: CC1COc2c(N3CCN(C)CC3)c(F)cc3c(=O)c(C(=O)O)cn1c23 (centres unmarked) [UM0133058:02, Ofloxacin]
Second: C#C[C@]1(OC(C)=O)CC[C@H]2[C@@H]3CCC4=C[C@@H](OC(C)=O)CC[C@@H]4[C@H]3CC[C@@]21C [UM0134301:02, Ethynodiol diacetate]
The “Inh (PKA)” value of the first is lower: -0.3552% for the first, 16.1% for the second.

Compared with `c1cc(-c2cnn3cc(-c4ccc(OCCN5CCCCC5)cc4)cnc23)ccn1` [UM0127814:02, Dorsomorphin], “VPMLK [UM0141837:01, Bax inhibitor peptide V5]” is lower in “Inh (PKA)” value: 19.2% for the first, -2.196% for the second.

First: O=C(O)Cn1nnc(-c2cc(N3CCC(Oc4cc(F)ccc4Br)CC3)no2)n1 [UM0141800:01, MK-8245]
Second: COc1cc(NC(=O)Nc2cccc(CNC(=O)O[C@H]3CCOC3)c2)ccc1-c1cnco1 [UM0142173:01, Merimepodib]
The “Inh (PKA)” value of the first is lower: 15.63% for the first, 28.05% for the second.

Going from `CC[C@@]1(O)C(=O)OCc2c1cc1n(c2=O)Cc2cc3ccccc3nc2-1` [UM0133648:02, Camptothecin] to `CCC[C@H](NC(=O)[C@@H]1[C@H]2CCC[C@H]2CN1C(=O)[C@@H](NC(=O)[C@@H](NC(=O)c1cnccn1)C1CCCCC1)C(C)(C)C)C(=O)C(=O)NC1CC1` [UM0141671:01, Telaprevir (VX-950)], the “Inh (PKA)” value rises from 1.997% to 3.048%.

First: COc1cc2c(Oc3ccc(NC(=O)C4(C(=O)Nc5ccc(F)cc5)CC4)cc3F)ccnc2cc1OCCCN1CCOCC1 [UM0141490:01, Foretinib (GSK1363089)]
Second: Cc1cc(C(C)Nc2ccccc2)c2nc(N3CCOCC3)cc(=O)n2c1 (centres unmarked) [UM0141481:01, TGX-221]
The “Inh (PKA)” value of the first is lower: 3.567% for the first, 45.75% for the second.

Compared with `CN1CCC(CNc2ccc3ncc(-c4cccc(OC(F)(F)F)c4)n3n2)CC1` [UM0141756:01, SGI-1776 free base], `Cc1cc(C(=O)NOCCO)c(Nc2ccc(I)cc2F)n(C)c1=O` [UM0127946:02, AZD8330] is lower in “Inh (PKA)” value: 32.18% for the first, 1.892% for the second.

Compared with `CNc1cc(-c2cccc(Cl)c2Cl)nc(N)n1` [UM0142665:01, TH287], `Cn1c(CCCC(=O)O)nc2cc(N(CCCl)CCCl)ccc21` [UM0141439:01, Bendamustine HCl] is lower in “Inh (PKA)” value: 9.555% for the first, -0.1879% for the second.
